Results reported in patent publication US20240025919A1, “AZA-TETRACYCLIC OXAZEPINE COMPOUNDS AND USES THEREOF” (Genentech, Inc., priority 2022, published 2024).
pIC50: −log10 of the molar value. Where two headings read alike, the source gives them in different places.

Legend:
KRAS G12D = KRAS G12D (Homo sapiens (Human), UniProt P01116, G12D); assay: KRAS G12D LoEnz Biochemical Assay, BODIPY-GDP Exchange TR-FRET (SOS1-mediated nucleotide exchange); conditions: read-out: KRas (G12D) GDP HTRF IC50
Sequence of KRAS G12D (P01116-2 other isoform, or with tags, fused parts or gaps G12D): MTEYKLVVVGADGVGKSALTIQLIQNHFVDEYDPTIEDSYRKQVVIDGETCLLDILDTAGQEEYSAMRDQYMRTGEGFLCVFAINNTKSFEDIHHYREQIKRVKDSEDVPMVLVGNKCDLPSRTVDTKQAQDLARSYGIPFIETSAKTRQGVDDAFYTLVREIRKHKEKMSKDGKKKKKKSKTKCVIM

KRAS WT = KRAS WT (Homo sapiens (Human), UniProt P01116); assay: KRAS WT Biochemical Assay, BODIPY-GDP Exchange TR-FRET (Example 501; 3 nM KRAS WT, 3 nM SOS1, 60-minute incubation); conditions: for pIC50: read-out: KRas HTRF IC50
Sequence of KRAS WT (P01116-2 other isoform, or with tags, fused parts or gaps): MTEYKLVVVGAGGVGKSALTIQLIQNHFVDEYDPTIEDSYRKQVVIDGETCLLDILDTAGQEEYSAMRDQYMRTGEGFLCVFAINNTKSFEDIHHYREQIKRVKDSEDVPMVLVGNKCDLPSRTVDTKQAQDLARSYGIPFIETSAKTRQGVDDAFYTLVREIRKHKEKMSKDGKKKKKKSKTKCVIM
Summary of the method: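 SOS1-mediated exchange assay: 3 nM biotin-KRAS WT with terbium-streptavidin, started with 3 nM SOS1 and 300 nM BODIPY-GDP, HEPES pH 7.5 with MgCl2. TR-FRET (520/490 nm) read after 60 min; normalized to DMSO and full-inhibition control, IC50 from 4-parameter Hill fit.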

| Structure (SMILES) | pIC50 (KRAS G12D) | pIC50 (KRAS WT) | IC50 (KRAS WT; KRas HTRF IC50 [uM]) [µM] |
| --- | --- | --- | --- |
| Cc1nc(N)c(F)c(-c2nc3c4c(nc(OC[C@@]56CCCN5CC5(CC5(F)F)C6)nc4c2F)N2C[C@H]4CC[C@H](N4)[C@H]2[C@H](C(F)(F)F)O3)c1C(F)(F)F (stereo partly drawn) [Compound 257, 4-((5R,5aS,6S,9R)-12-(((7a'S)-2,2-Difluorodihydro-1′H,3′H-spiro[cyclopropane-1,2′-pyrrolizin]-7a′(5′H)-yl)methoxy)-1-fluoro-5-(trifluoromethyl)-5a,6,7,8,9,10-hexahydro-5H-4-oxa-3,10a,11,13,14-pentaaza[6,9]methanonaphtho[1,8-ab]heptalen-2-yl)-3-fluoro-6-methyl-5-(trifluoromethyl)pyridin-2-amine] | 9.05 | 8.08 | – |
| Cc1c(F)c(N)cc(-c2nc3c4c(nc(OCC5(CN6CC6(C)C)CC5)nc4c2F)N2C[C@H]4CC[C@H](N4)[C@H]2[C@H](C)O3)c1C(F)(F)F (stereo partly drawn) [Compound 259, 5-((5S,5aS,6S,9R)-12-((1-((2,2-Dimethylaziridin-1-yl)methyl)cyclopropyl)methoxy)-1-fluoro-5-methyl-5a,6,7,8,9,10-hexahydro-5H-4-oxa-3,10a,11,13,14-pentaaza-6,9-methanonaphtho[1,8-ab]heptalen-2-yl)-2-fluoro-3-methyl-4-(trifluoromethyl)aniline] | 9.80 | – | 0.00971 |
| C[C@@H]1Oc2nc(-c3cc(N)nc(C(F)F)c3C(F)(F)F)c(F)c3nc(OC[C@@]45CCCN4C[C@H](F)C5)nc(c23)N2C[C@H]3CC[C@H](N3)[C@@H]12 [Compound 260, 6-(Difluoromethyl)-4-((5S,5aS,6S,9R)-1-fluoro-12-(((2R,7aS)-2-fluorotetrahydro-1H-pyrrolizin-7a(5H)-yl)methoxy)-5-methyl-5a,6,7,8,9,10-hexahydro-5H-4-oxa-3,10a,11,13,14-pentaaza-6,9-methanonaphtho[1,8-ab]heptalen-2-yl)-5-(trifluoromethyl)pyridin-2-amine] | 9.55 | 7.58 | – |
| Cc1nc(N)cc(-c2nc3c4c(nc(OCC56C[C@@H](F)CN5C[C@H](F)C6)nc4c2F)N2C[C@H]4CC[C@H](N4)[C@H]2[C@H](C(F)(F)F)O3)c1C(F)(F)F [Compound 261, 4-((5R,5aS,6S,9R)-12-(((2R,6R)-2,6-Difluorotetrahydro-1H-pyrrolizin-7a(5H)-yl)methoxy)-1-fluoro-5-(trifluoromethyl)-5a,6,7,8,9,10-hexahydro-5H-4-oxa-3,10a,11,13,14-pentaaza-6,9-methanonaphtho[1,8-ab]heptalen-2-yl)-6-methyl-5-(trifluoromethyl)pyridin-2-amine] | 8.56 | 7.01 | – |
| Cc1nc(N)cc(-c2nc3c4c(nc(OCC5(CN6CC7CC(C6)O7)CC5)nc4c2F)N2C[C@H]4CC[C@H](N4)[C@H]2[C@H](C)O3)c1C(F)(F)F [Compound 265, 4-((5S,5aS,6S,9R)-12-((1-((6-oxa-3-azabicyclo[3.1.1]heptan-3-yl)methyl)cyclopropyl)methoxy)-1-fluoro-5-methyl-5a,6,7,8,9,10-hexahydro-5H-4-oxa-3,10a,11,13,14-pentaaza-6,9-methanonaphtho[1,8-ab]heptalene-2-yl)-6-methyl-5-(trifluoromethyl)pyridin-2-amine] | 9.55 | 7.85 | – |
| Cc1nc(N)cc(-c2nc3c4c(nc(OCC5(CN6CCOC(C(F)(F)F)C6)CC5)nc4c2F)N2C[C@H]4CC[C@H](N4)[C@H]2[C@H](C)O3)c1C(F)(F)F (stereo partly drawn) [Compound 267, 4-((5S,5aS,6S,9R)-1-fluoro-5-methyl-12-((1-((2-(trifluoromethyl)morpholino)methyl)cyclopropyl)methoxy)-5a,6,7,8,9,10-hexahydro-5H-4-oxa-3,10a,11,13,14-pentaaza-6,9-methanonaphtho[1,8-ab]heptalene-2-yl)-6-methyl-5-(trifluoromethyl)pyridin-2-amine] | 8.53 | 6.22 | – |
| Cc1nc(N)cc(-c2nc3c4c(nc(OCC5(CN6CC[C@H]7OCC[C@H]76)CC5)nc4c2F)N2C[C@H]4CC[C@H](N4)[C@H]2[C@H](C)O3)c1C(F)(F)F [Compound 268, 4-((5S,5aS,6S,9R)-1-fluoro-12-((1-(((3aR,6aR)-hexahydro-4H-furo[3,2-b]pyrrol-4-yl)methyl)cyclopropyl)methoxy)-5-methyl-5a,6,7,8,9,10-hexahydro-5H-4-oxa-3,10a,11,13,14-pentaaza-6,9-methanonaphtho[1,8-ab]heptalene-2-yl)-6-methyl-5-(trifluoromethyl)pyridin-2-amine] | 9.54 | 7.92 | – |
| Cc1nc(N)cc(-c2nc3c4c(nc(OCC5(CN6C[C@H](F)C[C@H](F)C6)CC5)nc4c2F)N2C[C@H]4CC[C@H](N4)[C@H]2[C@H](C)O3)c1C(F)(F)F [Compound 269, 4-((5S,5aS,6S,9R)-12-((1-(((3S,5R)-3,5-difluoropiperidin-1-yl)methyl)cyclopropyl)methoxy)-1-fluoro-5-methyl-5a,6,7,8,9,10-hexahydro-5H-4-oxa-3,10a,11,13,14-pentaaza-6,9-methanonaphtho[1,8-ab]heptalene-2-yl)-6-methyl-5-(trifluoromethyl)pyridin-2-amine] | 9.38 | 6.98 | – |
| COCC1(F)CCN(CC2(COc3nc4c5c(nc(-c6cc(N)nc(C)c6C(F)(F)F)c(F)c5n3)O[C@@H](C)[C@@H]3[C@@H]5CC[C@H](CN43)N5)CC2)C1 (stereo partly drawn) [Compound 270, 4-((5S,5aS,6S,9R)-1-fluoro-12-((1-((3-fluoro-3-(methoxymethyl)pyrrolidin-1-yl)methyl)cyclopropyl)methoxy)-5-methyl-5a,6,7,8,9,10-hexahydro-5H-4-oxa-3,10a,11,13,14-pentaaza-6,9-methanonaphtho[1,8-ab]heptalen-2-yl)-6-methyl-5-(trifluoromethyl)pyridin-2-amine] | 9.59 | 7.97 | – |
| COC1(C(F)F)CN(CC2(COc3nc4c5c(nc(-c6cc(N)nc(C)c6C(F)(F)F)c(F)c5n3)O[C@@H](C)[C@@H]3[C@@H]5CC[C@H](CN43)N5)CC2)C1 [Compound 271, 4-((5S,5aS,6S,9R)-12-((1-((3-(difluoromethyl)-3-methoxyazetidin-1-yl)methyl)cyclopropyl)methoxy)-1-fluoro-5-methyl-5a,6,7,8,9,10-hexahydro-5H-4-oxa-3,10a,11,13,14-pentaaza-6,9-methanonaphtho[1,8-ab]heptalene-2-yl)-6-methyl-5-(trifluoromethyl)pyridin-2-amine] | 9.29 | 7.25 | – |
| COC1(CF)CN(CC2(COc3nc4c5c(nc(-c6cc(N)nc(C)c6C(F)(F)F)c(F)c5n3)O[C@@H](C)[C@@H]3[C@@H]5CC[C@H](CN43)N5)CC2)C1 [Compound 272, 4-((5S,5aS,6S,9R)-1-fluoro-12-((1-((3-(fluoromethyl)-3-methoxyazetidin-1-yl)methyl)cyclopropyl)methoxy)-5-methyl-5a,6,7,8,9,10-hexahydro-5H-4-oxa-3,10a,11,13,14-pentaaza-6,9-methanonaphtho[1,8-ab]heptalene-2-yl)-6-methyl-5-(trifluoromethyl)pyridin-2-amine] | 9.42 | 7.61 | – |
| COC1(C)CN(CC2(COc3nc4c5c(nc(-c6cc(N)nc(C)c6C(F)(F)F)c(F)c5n3)O[C@@H](C)[C@@H]3[C@@H]5CC[C@H](CN43)N5)CC2)C1 [Compound 273, 4-((5S,5aS,6S,9R)-1-fluoro-12-((1-((3-methoxy-3-methylazetidin-1-yl)methyl)cyclopropyl)methoxy)-5-methyl-5a,6,7,8,9,10-hexahydro-5H-4-oxa-3,10a,11,13,14-pentaaza-6,9-methanonaphtho[1,8-ab]heptalene-2-yl)-6-methyl-5-(trifluoromethyl)pyridin-2-amine] | 9.54 | 7.77 | – |
| Cc1nc(N)cc(-c2nc3c4c(nc(OCC5(CN6CC(C(F)F)C6)CC5)nc4c2F)N2C[C@H]4CC[C@H](N4)[C@H]2[C@H](C)O3)c1C(F)(F)F [Compound 274, 4-((5S,5aS,6S,9R)-12-((1-((3-(difluoromethyl)108eptalene-1-yl)methyl)cyclopropyl)methoxy)-1-fluoro-5-methyl-5a,6,7,8,9,10-hexahydro-5H-4-oxa-3,10a,11,13,14-pentaaza-6,9-methanonaphtho[1,8-ab]heptalene-2-yl)-6-methyl-5-(trifluoromethyl)pyridin-2-amine] | 9.47 | 7.59 | – |
| CO[C@@H]1CCN(CC2(COc3nc4c5c(nc(-c6cc(N)nc(C)c6C(F)(F)F)c(F)c5n3)O[C@@H](C)[C@@H]3[C@@H]5CC[C@H](CN43)N5)CC2)C[C@@H]1F [Compound 275, 4-((5S,5aS,6S,9R)-1-fluoro-12-((1-(((3S,4R)-3-fluoro-4-methoxypiperidin-1-yl)methyl)cyclopropyl)methoxy)-5-methyl-5a,6,7,8,9,10-hexahydro-5H-4-oxa-3,10a,11,13,14-pentaaza-6,9-methanonaphtho[1,8-ab]heptalene-2-yl)-6-methyl-5-(trifluoromethyl)pyridin-2-amine] | 9.32 | 7.63 | – |
| Cc1nc(N)cc(-c2nc3c4c(nc(OCC5(CN6CCC(C(F)F)C6)CC5)nc4c2F)N2C[C@H]4CC[C@H](N4)[C@H]2[C@H](C)O3)c1C(F)(F)F (stereo partly drawn) [Compound 276, 4-((5S,5aS,6S,9R)-12-((1-((3-(difluoromethyl)pyrrolidin-1-yl)methyl)cyclopropyl)methoxy)-1-fluoro-5-methyl-5a,6,7,8,9,10-hexahydro-5H-4-oxa-3,10a,11,13,14-pentaaza-6,9-methanonaphtho[1,8-ab]heptalen-2-yl)-6-methyl-5-(trifluoromethyl)pyridin-2-amine] | 9.59 | 8.05 | – |
